Experiment: not given
Conditions: not given

| logP | SMILES |
| --- | --- |
| 3.1 | Cc1nc(-c2ccccc2)c2ccccc2n1 |
| 1.74 | Clc1ccc2cncnc2c1 |
| 2.81 | CN(C)c1ccc2ccccc2n1 |
| 1.41 | COc1cnnc2ccccc12 |
| 1.71 | CSc1ccccn1 |
| 0.98 | NC(=O)c1cnc2ccccc2n1 |
| 0.99 | CN(C)C(=O)c1cnc2ccccc2c1 |
| 2.22 | COc1nnc(OC)c2ccccc12 |
| 1.43 | CN(C)c1ccccn1 |
| 1.28 | Nc1ncnc2ccccc12 |
| 2.61 | c1ccc2c(NC3CCCC3)ncnc2c1 |
| 1.06 | NC(=O)c1cnc2ccccc2c1 |
| 1.04 | Nc1cnnc2ccccc12 |
| 1.92 | COc1ccnc2c([N+](=O)[O-])cccc12 |
| 2.75 | c1ccc(Nc2ccccn2)cc1 |
| 0.99 | CN(C)c1ccc(N(C)C)nn1 |
| 1.57 | Cc1cccc2c(N)cnnc12 |
| 3.5 | COc1nc(-c2ccccc2)c2ccccc2n1 |
| 1.97 | COc1ncnc2ccccc12 |

| logP | SMILES |
| --- | --- |
| 2.4 | CC(C)(C)c1ccccn1 |
| 2.29 | CCCOc1cncc(C)n1 |
| 1.31 | Nc1ccnc2c([N+](=O)[O-])cccc12 |
| 1.57 | N#Cc1cnc2ccccc2c1 |
| 0.73 | O=[N+]([O-])c1cc2ccccc2nn1 |
| 1.8 | O=CNc1cccc2cccnc12 |
| 2.25 | COC(=O)c1cnc2ccccc2c1 |
| 1.72 | Brc1cc2ccccc2nn1 |
| 3.04 | Ic1ccc2ccccc2n1 |
| 1.8 | CCCCOc1cccnn1 |
| 2.14 | O=Cc1ccc2ccccc2n1 |
| 1.93 | c1ccc(-c2ncncn2)cc1 |
| 1.86 | CSc1nc(C)cc(C)n1 |
| 1.57 | Clc1cc2ccccc2nn1 |
| 0.89 | COc1ccc(Cl)nn1 |
| 1.76 | CC(=O)c1cnc2ccccc2c1 |
| 2.64 | CCOC(=O)c1ccc2ncccc2c1 |
| 3.15 | c1ccc(Sc2cccnc2)cc1 |
| 2.81 | COc1cc(C)nc2ccccc12 |

| logP | SMILES |
| --- | --- |
| 2.33 | O=S(=O)(c1ccccc1)c1cccc2cccnc12 |
| 2.45 | c1ccc(Oc2ccccn2)cc1 |
| 2.95 | Nc1nc(-c2ccccc2)c2ccccc2n1 |
| 2.31 | CCOC(=O)c1cc2ccc(CC)cc2nn1 |
| 1 | Nc1cc2ccccc2nn1 |
| 1.96 | Cc1cnnc2ccc(Cl)cc12 |
| 1.98 | Cc1cnnc2cc(Cl)ccc12 |
| 1.85 | CSc1ccc(SC)nn1 |
| 2.5 | CSc1ncc2ccccc2n1 |
| 1.96 | O=C(c1ccccc1)c1ccccn1 |
| 0.82 | Nc1nncc2ccccc12 |
| 1.67 | NNc1ncnc2ccccc12 |
| 3.58 | CNc1nc(-c2ccccc2)c2ccccc2n1 |
| 1.44 | CC(=O)c1cc2ccccc2nn1 |
| 2.71 | c1ccc(-c2ncnc3ccccc23)cc1 |
| 1.55 | CC(=O)Nc1ccc2cccnc2c1 |
| 1.6 | N#Cc1ccc2ccccc2n1 |
| 2.92 | c1ccc2c(N3CCCCC3)ncnc2c1 |
| 3.22 | CN(C)c1nnc(-c2ccccc2)c2ccccc12 |

| SMILES | logP |
| --- | --- |
| Cc1cccnc1 | 1.19 |
| c1ccc(-c2nnco2)cc1 | 1.31 |

Experiment: method code SF, from DOI: 10.1002/qsar.19830020303
Conditions: not given

| logP | SMILES |
| --- | --- |
| 0.56 | NS(=O)(=O)c1ccc2ncccc2c1 |
| -0.28 | NC(=O)c1ccncc1 |
| 0.29 | CN(C)c1cccnn1 |
| -0.75 | CC(=O)Nc1ncccn1 |
| -0.49 | NS(=O)(=O)c1cccnc1 |
| 0.5 | CC(=O)Nc1ccncc1 |
| 0.12 | CCOC(=O)c1ccc(Cl)nn1 |
| 0.35 | Nc1ccc(Cl)nn1 |
| 0.39 | Cc1cc(N)nc(C)n1 |
| 0.19 | Cc1cc(N)ncn1 |
| 0.98 | CN(C)c1ccc(Cl)nn1 |
| 0.62 | Cc1cc(NN)ncn1 |
| -0.09 | CN(C)c1ccnnc1 |
| 0.7 | CS(=O)(=O)c1ccc2ncccc2c1 |
| 3.04 | CSc1ccc2ccccc2n1 |
| 0 | NC(=O)c1ccc(Cl)nn1 |
| 0.67 | NC(=S)c1cccnc1 |
| -0.17 | COC(=O)c1cnccn1 |
| 0.35 | NNC(=O)c1ccc2ncccc2c1 |
| -0.48 | CN(C)C(=O)c1cccnc1 |
| -0.34 | NC(=S)c1ncccn1 |

Same assay, conditions: pH 7.4

| logD | SMILES |
| --- | --- |
| 2.08 | Oc1cnc2ccccc2c1 |

Experiment: method code SF-AS, from DOI: 10.1002/qsar.19830020303
Conditions: not given

| logP | SMILES |
| --- | --- |
| 2.01 | Cc1cc(C)nc(C)c1 |
